The test system of one experiment is RSV-A2-GFP virus. In words: microbe, parasite or virus in culture. The format is cell-based, Human Respiratory Syncytial Virus. An outline of the steps: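 IC50 (GFP-expressing cell counts by Acumen imaging) and CC50 (same-well CellTiter-Glo) were obtained by 4-parameter logistic fitting. Compounds were tested in 10-point 3-fold series for 96 h at 37° C, 5% CO2. Thawed Calu-1 ARF cells were infected at MOI 1.2 with GFP-reporter RSV-A2 in 2% FBS DMEM.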

The test system of another experiment is hMPV-GFP virus. Description: microbe, parasite or virus in culture. The format is cell-based, human metapneumovirus. An outline of the steps: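 Antiviral IC50 was derived from imaging counts of GFP-expressing cells, with CC50 from a same-well CellTiter-Glo read, both by 4-parameter logistic fitting. VERO cells plus hMPV-GFP (MOI 1.25) were exposed 48 h at 37 °C to 10-point 3-fold compound dilutions (typical final 40,300–2 nM).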

The mark [1] stands for this setting: Calu-1 cells infected with RSV-A2-GFP, 96 hrs, GFP-expressing cells counted, read-out: RSV EC50.
Where [2] appears, read: VERO cells infected with hMPV-GFP, 48 hrs, GFP-expressing cells counted, read-out: hMPV EC50.
Setting [3] is: human respiratory syncytial virus, Calu-1, 96 h, read-out: RSV EC50, Calu-1 cells infected with RSV-A2-GFP, 96 hrs, GFP-expressing cells counted.
Setting [4] is: human metapneumovirus, Vero, 48 h, read-out: hMPV EC50, VERO cells infected with hMPV-GFP, 48 hrs, GFP-expressing cells counted.

pEC50: −log10 of the molar value. Like-named read-outs stand apart in the source and are kept apart here.

For 21 compounds, EC50 results are on record in patent publication US12643882B2, “Inhibitors of human respiratory syncytial virus and metapneumovirus” (priority 2022, dated 2026).

One may read the pEC50 as the EC50 on a negative log10 scale, so that one unit is a factor of ten.

For the compound `Cc1nc(-c2ncccn2)sc1C(=O)N1C[C@@H]2[C@H](C1)[C@H]2Oc1cc(C(C)(C)N)cc(-c2ccc(C(F)(F)F)c(Cl)c2)n1` [Example 29, ((1R,5S,6s)-6-((4-(2-aminopropan-2-yl)-6-(3-chloro-4-(trifluoromethyl)phenyl)pyridin-2-yl)oxy)-3-azabicyclo[3.1.0]hexan-3-yl)(4-methyl-2-(pyrimidin-2-yl)thiazol-5-yl)methanone], the pEC50 was more than 8.00 with RSV-A2-GFP virus (setting [1]) and 7.00 to 8.00 in the experiment on hMPV-GFP virus (setting [2]).

On to `Cn1nc(-c2ncccn2)cc1C(=O)N1C[C@@H]2[C@H]1C[C@H]2Oc1cc(C(C)(C)N)cc(-c2ccc(F)cc2)n1` (single isomer, unassigned; enantiomer 2) [Example 4], for which the pEC50 with RSV-A2-GFP virus (setting [3]) is 7.00 to 8.00; in the experiment on hMPV-GFP virus (setting [4]), less than 7.00.

As for `Cc1nc(-c2ncccn2)sc1C(=O)N1C[C@@H]2[C@H](C1)[C@H]2Oc1cc(C(C)(C)N)cc(-c2ccc(F)c3ccccc23)n1` [Example 42, ((1R,5S,6s)-6-((4-(2-aminopropan-2-yl)-6-(4-fluoronaphthalen-1-yl)pyridin-2-yl)oxy)-3-azabicyclo[3.1.0]hexan-3-yl)(4-methyl-2-(pyrimidin-2-yl)thiazol-5-yl)methanone], the pEC50 was more than 8.00 in the experiment with RSV-A2-GFP virus (setting [1]) and 7.00 to 8.00 in the experiment with hMPV-GFP virus (setting [2]).

For the compound `Cc1nc(-c2ncccn2)sc1C(=O)N1C[C@@H]2[C@H]1C[C@H]2Oc1cc(C(C)(C)N)cc(-c2ccc(F)cc2)n1` (single isomer, unassigned) [Example 1A], the pEC50 with RSV-A2-GFP virus (read-out: RSV EC50, Calu-1 cells infected with RSV-A2-GFP, 96 hrs, GFP-expressing cells counted) was less than 7.00; with hMPV-GFP virus (setting [4]) it was less than 7.00.

For the compound `Cc1nc(-c2ncccn2)sc1C(=O)N1C[C@@H]2[C@H](C1)[C@H]2Oc1cc(C(C)(C)N)cc(-c2ccc(C(C)(F)F)cc2)n1` [Example 26, ((1R,5S,6s)-6-((4-(2-aminopropan-2-yl)-6-(4-(1,1-difluoroethyl)phenyl)pyridin-2-yl)oxy)-3-azabicyclo[3.1.0]hexan-3-yl)(4-methyl-2-(pyrimidin-2-yl)thiazol-5-yl)methanone], the pEC50 with RSV-A2-GFP virus (setting [1]) is more than 8.00; in the experiment with hMPV-GFP virus (setting [2]), 7.00 to 8.00.

On to `Cc1ccc(-c2cc(C(C)(C)N)cc(O[C@H]3[C@@H]4CN(C(=O)c5sc(-c6ncccn6)nc5C)C[C@@H]43)n2)cc1C` [Example 32, ((1R,5S,6s)-6-((4-(2-aminopropan-2-yl)-6-(3,4-dimethylphenyl)pyridin-2-yl)oxy)-3-azabicyclo[3.1.0]hexan-3-yl)(4-methyl-2-(pyrimidin-2-yl)thiazol-5-yl)methanone], for which the pEC50 in the experiment with RSV-A2-GFP virus (setting [1]) was more than 8.00; in the experiment with hMPV-GFP virus (setting [2]) it was less than 7.00.

Take `Cc1ccc(-c2cc(C(C)(C)N)cc(O[C@H]3[C@@H]4CN(C(=O)c5sc(-c6ncccn6)nc5C)C[C@@H]43)n2)c(C)c1` [Example 33, ((1R,5S,6s)-6-((4-(2-aminopropan-2-yl)-6-(2,4-dimethylphenyl)pyridin-2-yl)oxy)-3-azabicyclo[3.1.0]hexan-3-yl)(4-methyl-2-(pyrimidin-2-yl)thiazol-5-yl)methanone]: the values for the negative logarithm of the EC50 (pEC50) with RSV-A2-GFP virus (setting [1]) and with hMPV-GFP virus (setting [2]) were more than 8.00 and less than 7.00, respectively.

`Cc1nn(-c2ncccn2)cc1C(=O)N1C[C@H]2[C@H](Oc3cc(C(C)(C)N)cc(-c4ccc(F)cc4F)n3)[C@@]2(C)C1` (single isomer, unassigned; enantiomer 1) [Example 109A]: the pEC50 with RSV-A2-GFP virus (setting [3]) is more than 8.00; in the experiment on hMPV-GFP virus (read-out: hMPV EC50, VERO cells infected with hMPV-GFP, 48 hrs, GFP-expressing cells counted), less than 7.00.

`CC(C)(N)c1cc(O[C@H]2[C@@H]3CN(C(=O)c4cn(-c5ncccn5)nc4CCF)C[C@@H]32)nc(-c2ccc(F)cc2)c1` [Example 131, ((1R,5S,6s)-6-((4-(2-aminopropan-2-yl)-6-(4-fluorophenyl)pyridin-2-yl)oxy)-3-azabicyclo[3.1.0]hexan-3-yl)(3-(2-fluoroethyl)-1-(pyrimidin-2-yl)-1H-pyrazol-4-yl)methanone]: the negative-log EC50 (pEC50) in the experiment with RSV-A2-GFP virus (setting [3]) was more than 8.00; with hMPV-GFP virus (setting [4]), less than 7.00.

On to `Cc1nn(-c2ncccn2)cc1C(=O)N1C[C@@H]2[C@H](C1)[C@H]2Oc1cc(C(C)(C)N)cc(-c2ccc3c(c2)CC3(F)F)n1` [Example 99, ((1R,5S,6s)-6-((4-(2-aminopropan-2-yl)-6-(7,7-difluorobicyclo[4.2.0]octa-1(6),2,4-trien-3-yl)pyridin-2-yl)oxy)-3-azabicyclo[3.1.0]hexan-3-yl)(3-methyl-1-(pyrimidin-2-yl)-1H-pyrazol-4-yl)methanone], for which the results for the pEC50 in the experiment on RSV-A2-GFP virus (setting [1]) and in the experiment with hMPV-GFP virus (setting [2]) were more than 8.00 and less than 7.00, respectively.

As to `Cn1nc(-c2ncccn2)cc1C(=O)N1C[C@H]2[C@H](Oc3cc(C(C)(C)N)cc(-c4ccc(F)cc4)n3)[C@@]2(C)C1` (single isomer, unassigned; enantiomer 1) [Example 104A], the results for the negative logarithm of the EC50 (pEC50) in the experiment with RSV-A2-GFP virus (setting [3]) and with hMPV-GFP virus (setting [4]) were more than 8.00 and less than 7.00, respectively.

For `COc1cc(F)ccc1-c1cc(C(C)(C)N)cc(O[C@H]2[C@@H]3CN(C(=O)c4sc(-c5ncccn5)nc4C)C[C@@H]32)n1` [Example 41, ((1R,5S,6s)-6-((4-(2-aminopropan-2-yl)-6-(4-fluoro-2-methoxyphenyl)pyridin-2-yl)oxy)-3-azabicyclo[3.1.0]hexan-3-yl)(4-methyl-2-(pyrimidin-2-yl)thiazol-5-yl)methanone], the pEC50 with RSV-A2-GFP virus (setting [1]) was more than 8.00; in the experiment with hMPV-GFP virus (setting [2]), less than 7.00.

Take `CCc1nc(-c2ncccn2)sc1C(=O)N1C[C@@H]2[C@H]1C[C@H]2Oc1cc(C(C)(C)N)cc(-c2ccc(F)cc2)n1` (single isomer, unassigned; enantiomer 2) [Example 3]: the pEC50 in the experiment with RSV-A2-GFP virus (setting [3]) was more than 8.00; in the experiment on hMPV-GFP virus (setting [4]) it was less than 7.00.

Turning to `CCc1nc(-c2ncccn2)sc1C(=O)N1C[C@@H]2[C@H](C1)[C@H]2Oc1cc(C(C)(C)N)cc(-c2ccc(F)cc2)n1` [Example 10, ((1R,5S,6s)-6-((4-(2-aminopropan-2-yl)-6-(4-fluorophenyl)pyridin-2-yl)oxy)-3-azabicyclo[3.1.0]hexan-3-yl)(4-ethyl-2-(pyrimidin-2-yl)thiazol-5-yl)methanone], the negative-log EC50 (pEC50) in the experiment with RSV-A2-GFP virus (setting [1]) was more than 8.00; with hMPV-GFP virus (setting [2]) it was 7.00 to 8.00.

With `Cc1nn(-c2ncccn2)cc1C(=O)N1C[C@@H]2[C@H](C1)[C@H]2Oc1cc(C(C)(C)N)cc(-c2ccc(C(F)(F)F)cc2)n1` [Example 86, ((1R,5S,6s)-6-((4-(2-aminopropan-2-yl)-6-(4-(trifluoromethyl)phenyl)pyridin-2-yl)oxy)-3-azabicyclo[3.1.0]hexan-3-yl)(3-methyl-1-(pyrimidin-2-yl)-1H-pyrazol-4-yl)methanone], the negative-log EC50 (pEC50) is more than 8.00 in the experiment with RSV-A2-GFP virus (setting [1]) and 7.00 to 8.00 in the experiment with hMPV-GFP virus (setting [2]).

Consider `CC(C)(N)c1cc(O[C@H]2[C@@H]3CN(C(=O)c4cn(-c5ncccn5)nc4C(F)(F)F)C[C@@H]32)nc(-c2ccc(C(F)(F)F)cc2)c1` [Example 93, ((1R,5S,6s)-6-((4-(2-aminopropan-2-yl)-6-(4-(trifluoromethyl)phenyl)pyridin-2-yl)oxy)-3-azabicyclo[3.1.0]hexan-3-yl)(1-(pyrimidin-2-yl)-3-(trifluoromethyl)-1H-pyrazol-4-yl)methanone], for which the negative logarithm of the EC50 (pEC50) with RSV-A2-GFP virus (setting [1]) was more than 8.00; in the experiment on hMPV-GFP virus (setting [2]), less than 7.00.

`Cc1nn(-c2ncccn2)cc1C(=O)N1C[C@@H]2[C@H](C1)[C@H]2Oc1cc(C(C)(C)N)cc(-c2cc3ccccc3[nH]2)n1` [Example 89, ((1R,5S,6s)-6-((4-(2-aminopropan-2-yl)-6-(1H-indol-2-yl)pyridin-2-yl)oxy)-3-azabicyclo[3.1.0]hexan-3-yl)(3-methyl-1-(pyrimidin-2-yl)-1H-pyrazol-4-yl)methanone]: the figures for the pEC50 with RSV-A2-GFP virus (setting [1]) and in the experiment with hMPV-GFP virus (setting [2]) were more than 8.00 and less than 7.00, respectively.

In the case of `Cc1nc(-c2ncccn2)sc1C(=O)N1C[C@@H]2[C@H](C1)[C@H]2Oc1cc(C(C)(C)N)cc(C2=CCCCC2)n1` [Example 45, ((1R,5S,6s)-6-((4-(2-aminopropan-2-yl)-6-(cyclohex-1-en-1-yl)pyridin-2-yl)oxy)-3-azabicyclo[3.1.0]hexan-3-yl)(4-methyl-2-(pyrimidin-2-yl)thiazol-5-yl)methanone], the figures for the pEC50 in the experiment with RSV-A2-GFP virus (setting [1]) and in the experiment with hMPV-GFP virus (setting [2]) were more than 8.00 and less than 7.00, respectively.

Turning to `Cc1nc(-c2ncccn2)sc1C(=O)N1C[C@@H]2[C@H](C1)[C@H]2Oc1cc(C(C)(C)N)cc(-c2ccc(C#N)cc2)n1` [Example 23, 4-(4-(2-aminopropan-2-yl)-6-(((1R,5S,6s)-3-(4-methyl-2-(pyrimidin-2-yl)thiazole-5-carbonyl)-3-azabicyclo[3.1.0]hexan-6-yl)oxy)pyridin-2-yl)benzonitrile], the negative-log EC50 (pEC50) was more than 8.00 with RSV-A2-GFP virus (setting [1]) and less than 7.00 in the experiment on hMPV-GFP virus (setting [2]).

`Cc1nc(-c2ncccn2)[nH]c1C(=O)N1C[C@@H]2[C@H](C1)[C@H]2Oc1cc(C(C)(C)N)cc(-c2ccc(F)cc2)n1` [Example 75, ((1R,5S,6s)-6-((4-(2-aminopropan-2-yl)-6-(4-fluorophenyl)pyridin-2-yl)oxy)-3-azabicyclo[3.1.0]hexan-3-yl)(4-methyl-2-(pyrimidin-2-yl)-1H-imidazol-5-yl)methanone]: the pEC50 in the experiment with RSV-A2-GFP virus (setting [1]) is 7.00 to 8.00; with hMPV-GFP virus (setting [2]), less than 7.00.

With `Cc1nc(-c2ncccn2)sc1C(=O)N1C[C@@H]2[C@H](C1)[C@H]2Oc1cc(-c2ccc(F)cc2)cc(C(C)(C)N)n1` [Example 115, ((1R,5S,6s)-6-((6-(2-aminopropan-2-yl)-4-(4-fluorophenyl)pyridin-2-yl)oxy)-3-azabicyclo[3.1.0]hexan-3-yl)(4-methyl-2-(pyrimidin-2-yl)thiazol-5-yl)methanone], the negative-log EC50 (pEC50) with RSV-A2-GFP virus (setting [3]) was more than 8.00; with hMPV-GFP virus (setting [4]), less than 7.00.
